The values that follow are results of earlier work, collected in US7345028B1, “Energy-protective composition comprising adenosine phosphates” (priority 2002, dated 2008).

The test system of the data set is experimental animals. The following applies: administered prior to and after gamma irradiation.

As for `Nc1ncnc2c1ncn2[C@@H]1O[C@H](COP(=O)(O)OP(=O)(O)O)[C@@H](O)[C@H]1O` [adenosine diphosphate], the “protective action against irradiation” value is listed as “protective action”.
